According to US8992996B2, “Cosmetic” (Restorsea, LLC, priority 2012, dated 2015):

System: follicles (microcomedones)
Set-up: species or system human
Settings: in vivo
Protocol: A study is conducted to determine the comedogenic potential of test materials in the form of day cream and eye cream with formulations disclosed above by assessing whether the test materials elicited microcomedones, after four weeks of repeated application under occlusive patch conditions, relative to a negative control (undosed patch). Acetylated Lanolin Alcohol served as a positive control material in order to validate the study. The tests are conducted during a 4 week study period. A total of 15 subjects, ranging in age from 22 to 45 years, are selected for the study. All 15 participants completed the study.

Substance: Acetylated Lanolin Alcohol
- average ratio of microcomedones per follicle: 6%
- ratio of microcomedones to follicles compared with negative control (statistics): significantly greater ratio than the negative control
